Results taken from patent publication US12679878B2, “CRF2 receptor agonists and their use in therapy” (SANOFI, priority 2020, dated 2026).
Where two headings read alike, the source gives them in different places. Starred links: 1 amine or outer side, 2 acyl side, 3 side chain; linkers in the order of their positions; H or OH if unused. Non-standard residues stand in square brackets, D forms with d. Residues, ends and D or L forms follow the SMILES beside them. Groups on a side chain read outwards from the residue. *: point of attachment. C20 diacid = O=C(O)CCCCCCCCCCCCCCCCCCC(=O)*; C18 diacid = O=C(O)CCCCCCCCCCCCCCCCC(=O)*; γGlu = O=C(O)[C@H](CCC(=O)[*:2])N[*:1]; Palmitoyl = CCCCCCCCCCCCCCCC(=O)*; AEEA = NCCOCCOCC(=O)O; Aib = CC(C)(N)C(=O)O

Key:
human CRF2α receptor = target: T1, human CRF2α receptor (Homo sapiens, UniProt Q13324); experiment: cAMP agonism at human CRF2 α receptor in TeloHEAC cells (Example 7); type: cell-based; conditions: cAMP HTRF, TeloHEAC cells stably expressing human CRF2 α
T1 construct: expressed in transfected cells; host or cells: TeloHEAC
T1 sequence (Q13324 1-411): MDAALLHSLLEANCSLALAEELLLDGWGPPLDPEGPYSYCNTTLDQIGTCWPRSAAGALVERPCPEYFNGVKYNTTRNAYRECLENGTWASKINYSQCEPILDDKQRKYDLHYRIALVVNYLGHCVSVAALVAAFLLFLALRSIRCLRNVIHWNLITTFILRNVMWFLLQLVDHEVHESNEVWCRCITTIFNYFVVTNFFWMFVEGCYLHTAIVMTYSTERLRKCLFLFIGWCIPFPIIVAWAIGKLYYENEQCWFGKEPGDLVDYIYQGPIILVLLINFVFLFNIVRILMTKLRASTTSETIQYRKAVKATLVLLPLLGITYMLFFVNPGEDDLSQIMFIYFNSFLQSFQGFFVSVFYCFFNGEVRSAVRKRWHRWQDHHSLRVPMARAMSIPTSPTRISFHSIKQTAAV
Method in brief: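 Steps: thaw and wash cells; suspend in 1×HBSS, 20 mM HEPES, 0 or 0.1% HSA, 2 mM IBMX; add compound, 30 min RT; lyse with HTRF reagents, 1 h; read 665/620 nm. EC50 calculated, E% versus 1000 nM UCN2.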

[1] = Solubility in buffer systems by UPLC-UV (Example 13); type: physicochemical
Method in brief: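 Quantitation used UV peak area from UPLC of the 1:10-diluted supernatant, set against a reference-compound standard curve with extinction coefficients adjusted for amino acid sequence.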

[2] = Physical stability, Thioflavin T fibrillation assay (Example 14); type: physicochemical; conditions: 3 mg/ml, 37° C. shaking
Experimental: The physical stability of the compounds was assessed using a Thioflavin T (ThT) assay.
The time course for fibril formation often follows the characteristic shape of a sigmoidal curve and can be separated into three regions: a lag phase, a fast growth phase, and a plateau phase. The typical fibril formation process starts with the lag phase in which the amount of partially folded peptide turned into fibrils is not significant enough to be detected. The lag-time corresponds to the time the critical mass of the nucleus is built. Afterwards, a drastic elongation phase follows and fibril concentration increases rapidly. Therefore, by measuring the increase in fluorescence intensity attributable to ThT as well as the lag time of the increase, the fibrillation tendency of a peptide can be determined, thereby providing a measure of the physical stability of the peptide.
In the present study, test compounds were diluted in buffer to a final concentration of 3 mg/ml.
The fibrillation tendencies of the peptides were determined under stress using a Fluoroskan Ascent FL or Fluoroskan Ascent fluorometer. […] Plates were sealed with Scotch Tape (Quiagen). Samples were stressed by continuous cycles of 10 s shaking at 960 rpm and 50 s rest period at 37° C. Fibril development was monitored by measuring fluorescence intensity every 20 minutes. For each sample, eight replicates were tested.

CRF1R receptor = target: T2, CRF1R receptor (Homo sapiens, UniProt P34998); experiment: cAMP activity at anti-target CRF1R, CRF1R-overexpression CHO cell line (Example 9); type: cell-based; conditions: CRF1R-overexpression CHO cell line; for EC50: 0% HSA; for Emax: read-out: Emax (%)
T2 construct: host or cells: CHO-K1 clone 2
T2 sequence (P34998 24-415): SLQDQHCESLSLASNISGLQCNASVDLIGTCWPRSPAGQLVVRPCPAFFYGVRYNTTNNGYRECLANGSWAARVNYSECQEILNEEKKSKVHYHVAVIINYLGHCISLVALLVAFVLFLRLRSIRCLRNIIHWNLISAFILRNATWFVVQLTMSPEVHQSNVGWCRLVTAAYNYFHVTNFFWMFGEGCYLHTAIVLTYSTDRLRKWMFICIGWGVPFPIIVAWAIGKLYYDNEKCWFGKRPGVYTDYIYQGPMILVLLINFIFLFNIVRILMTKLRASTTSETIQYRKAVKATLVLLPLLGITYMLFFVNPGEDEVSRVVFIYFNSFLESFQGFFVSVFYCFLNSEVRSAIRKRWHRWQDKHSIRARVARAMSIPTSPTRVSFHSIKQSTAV
Method in brief: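 Using thawed CRF1R-overexpressing CHO cells at 2000 per well, compound is applied for 30 min at RT in HBSS/HEPES buffer with IBMX. Cellular cAMP content is determined via HTRF, and percent activity is calculated against 1000 nM UCN2 defined as 100%.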

rat CRF2R α receptor = experiment: cAMP agonism at rat CRF2R α receptor in A7R5 rat aortic smooth muscle cells (Example 8); type: cell-based; conditions: cAMP HTRF, A7R5 rat aortic smooth muscle cell line, 0% HSA
Method in brief: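 Potency (EC50) is the concentration reaching half-maximal activation, with responses scaled so that 1000 nM urocortin 2 equals 100%. Intracellular cAMP was quantified by homogeneous time-resolved fluorescence at 665/620 nm, 1 h after lysis-buffer reagents. Compound stimulation lasted 30 min at room temperature on 2000 IBMX-treated (2 mM) cells per well in HEPES-buffered HBSS.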

[3] = 0% HSA, read-out: EC50 [nM], 0% HSA
[4] = pH 4.5, Solubility in Buffer B [mg/ml]
[5] = Buffer A: 100 mM acetate buffer, pH 4.5
[6] = Buffer B: 100 mM acetate buffer, pH 4.5, 2.7 mg/ml m-cresol

EC50 (human CRF2α receptor; [3])	solubility at 1 h [1, 4]	Increase in FI (fluorescence intensity) [2, 5]	Lag time [2, 5]	EC50 (CRF1R receptor)	Emax (CRF1R receptor)	EC50 (human CRF2α receptor; 0.1% HSA, read-out: EC50 [nM], 0.1% HSA)	Increase in FI (fluorescence intensity) [2, 6]	Lag time [2, 6]	solubility at 1 h ([1]; pH 7.4, Solubility in Buffer C [mg/ml])	EC50 (rat CRF2R α receptor)	Structure (SMILES)
0.04 nM	> 9.6 mg/mL	Yes	18 h	> 1000 nM	17.4%						CCCCCCCCCCCCCCCC(=O)N[C@@H](CCC(=O)NCCCC[C@H](NC(=O)[C@H](CC(C)C)NC(=O)CNC(=O)[C@@H](NC(=O)[C@@H]1CCCN1C(=O)[C@@H](NC(=O)[C@H](CC(=O)O)NC(=O)[C@H](CC(C)C)NC(=O)[C@H](CO)NC(=O)[C@H](CC(C)C)NC(=O)[C@@H](NC(=O)[C@@H](N)[C@@H](C)CC)C(C)C)C(C)C)[C@@H](C)CC)C(=O)N[C@@H](CCC(N)=O)C(=O)N[C@@H](CCCCN)C(=O)N[C@@H](CC(C)C)C(=O)N[C@@H](CC(C)C)C(=O)N[C@@H](CCCCN)C(=O)N[C@@H](CCC(N)=O)C(=O)N[C@@H](CCC(=O)O)C(=O)N[C@@H](CCCCN)C(=O)N[C@@H](CCC(N)=O)C(=O)N[C@@H](CCC(=O)O)C(=O)N[C@@H](CCCCN)C(=O)N[C@@H](CCC(=O)O)C(=O)N[C@@H](CCCCN)C(=O)N[C@@H](CCC(N)=O)C(=O)N[C@@H](CCC(N)=O)C(=O)N[C@@H](C)C(=O)N[C@@H](CCC(=O)O)C(=O)N[C@H](C(=O)N[C@@H](CC(N)=O)C(=O)N[C@@H](C)C(=O)N[C@@H](CCCCN)C(=O)N[C@H](C(=O)N[C@@H](CC(C)C)C(=O)N[C@@H](C)C(=O)N[C@@H](CCC(N)=O)C(=O)N[C@H](C(N)=O)C(C)C)[C@@H](C)CC)[C@@H](C)O)C(=O)O [compound 4] (H-IVLSLDVPIGLK([γGlu-Palmitoyl])QKLLKQEKQEKEKQQAETNAKILAQV-NH2; N-terminus assumed)
0.02 nM	> 8.9 mg/mL				58.6%	0.03 nM	No	>45 h			CCCCCCCCCCCCCCCC(=O)N[C@@H](CCC(=O)NCCCC[C@H](NC(=O)[C@H](CC(C)C)NC(=O)[C@H](CCCCN)NC(=O)[C@@H](NC(=O)[C@@H]1CCCN1C(=O)[C@H](NC(=O)[C@H](CC(=O)O)NC(=O)[C@H](CC(C)C)NC(=O)[C@H](CO)NC(=O)[C@H](CC(C)C)NC(=O)[C@@H](NC(=O)[C@@H](N)[C@@H](C)CC)C(C)C)C(C)C)[C@@H](C)O)C(=O)N[C@@H](CCC(N)=O)C(=O)N[C@@H](CCCCN)C(=O)N[C@@H](CC(C)C)C(=O)N[C@@H](CC(C)C)C(=O)N[C@@H](CCCCN)C(=O)N[C@@H](CCC(N)=O)C(=O)N[C@@H](CCC(=O)O)C(=O)N[C@@H](CCCNC(=N)N)C(=O)N[C@@H](CCC(N)=O)C(=O)N[C@@H](CCCNC(=N)N)C(=O)N[C@@H](CCCCN)C(=O)N[C@@H](CCC(=O)O)C(=O)N[C@@H](CCCNC(=N)N)C(=O)N[C@@H](CCC(=O)O)C(=O)N[C@@H](CCC(N)=O)C(=O)N[C@@H](C)C(=O)N[C@@H](CCC(=O)O)C(=O)N[C@@H](CCCCN)C(=O)N[C@@H](CC(N)=O)C(=O)N[C@@H](C)C(=O)N[C@@H](CCCNC(=N)N)C(=O)N[C@H](C(=O)N[C@@H](CC(C)C)C(=O)N[C@@H](C)C(=O)N[C@@H](CCCNC(=N)N)C(=O)N[C@H](C(N)=O)C(C)C)[C@@H](C)CC)C(=O)O [compound 7] (H-IVLSLD[dV]PTKLK([γGlu-Palmitoyl])QKLLKQERQRKEREQAEKNARILARV-NH2)
0.48 nM	> 11.5 mg/mL	No	>45 h	> 1000 nM	4.84%		No	>45 h	> 11 mg/mL	1.35 nM	CC[C@H](C)[C@H](NC(=O)[C@H](CCC(N)=O)NC(=O)[C@H](CCCCNC(=O)COCCOCCNC(=O)COCCOCCNC(=O)CC[C@H](NC(=O)CCCCCCCCCCCCCCCCCCC(=O)O)C(=O)O)NC(=O)[C@@H](NC(=O)[C@H](CCCCN)NC(=O)[C@@H](NC(=O)[C@@H]1CCCN1C(=O)[C@@H](NC(=O)[C@H](CC(=O)O)NC(=O)[C@H](CC(C)C)NC(=O)[C@H](CO)NC(=O)[C@H](CC(C)C)NC(=O)[C@@H](NC(=O)[C@@H](N)Cc1ccccc1)[C@@H](C)O)C(C)C)[C@@H](C)O)[C@@H](C)CC)C(=O)N[C@@H](CC(C)C)C(=O)N[C@@H](CC(C)C)C(=O)N[C@@H](CCCCN)C(=O)N[C@@H](CCC(N)=O)C(=O)N[C@@H](CCC(N)=O)C(=O)N[C@@H](CCCCN)C(=O)N[C@@H](CCC(N)=O)C(=O)N[C@@H](CCCCN)C(=O)N[C@@H](CCCCN)C(=O)N[C@@H](CCC(=O)O)C(=O)N[C@@H](CCCNC(=N)N)C(=O)N[C@@H](CCC(N)=O)C(=O)N[C@@H](CCC(N)=O)C(=O)N[C@@H](C)C(=O)N[C@@H](CCC(=O)O)C(=O)N[C@@H](CCCCN)C(=O)N[C@@H](CC(N)=O)C(=O)N[C@@H](CCCCN)C(=O)N[C@@H](CCC(N)=O)C(=O)N[C@@H](CC(C)C)C(=O)N[C@@H](CC(C)C)C(=O)N[C@@H](CCC(=O)O)C(=O)N[C@@H](CCCNC(=N)N)C(=O)N[C@H](C(N)=O)C(C)C [compound 60] (H-FTLSLDVPTKIK([AEEA-AEEA-γGlu-C20 diacid])QILLKQQKQKKERQQAEKNKQLLERV-NH2)
0.65 nM	> 10.7 mg/mL			> 1000 nM	2.58%		Yes	34.7 to 41.0 h		4.31 nM	CC[C@H](C)[C@H](N)C(=O)N[C@H](C(=O)N[C@@H](CC(C)C)C(=O)N[C@@H](CO)C(=O)N[C@@H](CC(C)C)C(=O)N[C@@H](CC(=O)O)C(=O)N[C@H](C(=O)N1CCC[C@H]1C(=O)N[C@H](C(=O)N[C@@H](CCCCN)C(=O)N[C@@H](CC(C)C)C(=O)N[C@@H](CCCCNC(=O)COCCOCCNC(=O)COCCOCCNC(=O)CC[C@H](NC(=O)CCCCCCCCCCCCCCCCC(=O)O)C(=O)O)C(=O)N[C@@H](CCC(N)=O)C(=O)N[C@H](C(=O)N[C@@H](CC(C)C)C(=O)N[C@@H](CC(C)C)C(=O)N[C@@H](CCC(=O)O)C(=O)N[C@@H](CCC(N)=O)C(=O)N[C@@H](CCC(=O)O)C(=O)N[C@@H](CCCNC(=N)N)C(=O)N[C@@H](CCC(N)=O)C(=O)N[C@@H](CCCCN)C(=O)N[C@@H](CCCCN)C(=O)N[C@@H](CCC(N)=O)C(=O)N[C@@H](CCCNC(=N)N)C(=O)N[C@@H](CCC(N)=O)C(=O)N[C@@H](CCC(N)=O)C(=O)N[C@@H](C)C(=O)N[C@@H](CCC(=O)O)C(=O)N[C@H](C(=O)N[C@@H](CC(N)=O)C(=O)NC(C)(C)C(=O)N[C@@H](CCC(N)=O)C(=O)N[C@H](C(=O)N[C@@H](CC(C)C)C(=O)N[C@@H](C)C(=O)N[C@@H](CCC(N)=O)C(=O)N[C@H](C(N)=O)C(C)C)[C@@H](C)CC)[C@@H](C)O)[C@@H](C)CC)[C@@H](C)CC)C(C)C)C(C)C [compound 72] (H-IVLSLDVPIKLK([AEEA-AEEA-γGlu-C18 diacid])QILLEQERQKKQRQQAETN[Aib]QILAQV-NH2; N-terminus assumed)
